Where a name gives a salt, the structure may show the parent alone.
Legend:
HGPS AG11498 cells = assay: Senescence-associated β-galactosidase in HGPS cells; type: cell-based, human; conditions: HGPS AG11498; Remodelin 1 μM, Pifithrin alpha 10 μM
Protocol: (§1) The following KAT and KDAC inhibitors were used in the nuclear shape rescue screen, incubating cells with the molecules for 16 hours: trichostatin A (1 μM), sodium butyrate (5 mM), tubacin (10 μM), SAHA (5 μM), curcumin (10 μM), garcinol (50 μM), anacardic acid (1 μM), MB-3 (5 μM), 4-(4-chlorophenyl)-2-(2-cyclopentylidenehydrazinyl)thiazole (Compound 2) (50 μM), 4-(4-chlorophenyl)-2-(2-cyclopentylidene-1-(prop-2-yn-1-yl)hydrazinyl)thiazole (Compound 3) (50 μM) and cyclopentylidene-[4-(4-cyanophenyl)thiazol-2-yl)hydrazine (Compound 1) (Remodelin) (10 to 50 μM). For HGPS cellular fitness assays, Remodelin was incubated at 1 μM for 1 to 10 days, renewing the medium every 3 days. For long-term senescence assay, cells were kept and passaged in medium containing 1 μM Remodelin or DMSO only for 12 population doublings. Senescence was assessed after 8 days of Remodelin treatment when cells were at Population Doubling 12, and then after several weeks of Remodelin treatment, when cells reached Population Doubling 24 using the Senescence β-Galactosidase Staining Kit #9860 from Cell Signaling. Nocodazole, colchicine and latrunculin A (Sigma-Aldrich) were used at 200 ng/ml, 1 μg/ml and 1 μM respectively. Aphidicolin (Sigma-Aldrich) was used at 5 μg/ml for 16 h. Farnesyltransferase inhibitor FTI-277 was purchased from Tocris Bioscience and used at 5 μM. ATMi (KU55933) and ATRi (ATR-45) were obtained from Tocris Bioscience and from the Ohio State University respectively and used at 10 μM and 500 nM. Pifithrin alpha (Sigma-Aldrich) was used at 10 μM.

[1] = tested on: Lamin A/C depleted (siLMNA) U2OS cells; assay: Nuclear shape rescue (DAPI staining, nuclear circularity) in Lamin A/C depleted cells; type: cell-based, human; conditions: 16 hours, Compound 2 and 3 50 μM, MB-3 5 μM, FTI 5 μM, nocodazole 200 ng/ml, colchicine 1 μg/ml, latrunculin A 1 μM
Protocol: (§2) U2OS and SaOS-2 osteosarcoma cells, HeLa cervical cancer cells, A431 melanoma cells, NCI-SNU5 gastric cancer cells, MRC-5 lung fibroblast cells and Werner syndrome patient-derived SV40 fibroblast cells were grown in Dulbecco's modified Eagle medium (DMEM, Sigma-Aldrich) supplemented with 10% fetal bovine serum (BioSera), 2 mM L-glutamine, 100 U per ml penicillin, 100 μg ml^−1 streptomycin. Normal skin primary fibroblasts GM03440 and Hutchinson Gilford Progeria Syndrome (HGPS) skin primary fibroblasts AG11498 and AG06297 were purchased from Coriell Cell Repositories and used between passage number 9-12 and 20-23 respectively. Cells were grown in DMEM supplemented as above. RPE-1 retinal pigment epithelial cells were grown in DMEM and Ham F12 mix medium supplemented as above and buffered with sodium bicarbonate. HMV-II melanoma cell line, 22RV1 prostate carcinoma cells, NCI-H82 and NCI-H69 lung carcinoma cells, and NCI-N87 gastric cancer cell lines were grown in RPMI-1640 medium (Sigma-Aldrich) supplemented as above. Stably transfected U2OS cells were maintained in standard medium containing 1 mg ml^−1 G418 (Invitrogen). The siRNA duplexes were obtained from Life Sciences: Lamin A/C stealth RNAi: […] (SEQ ID NO: 1) and […] (SEQ ID NO: 2), NAT10 stealth RNAi: […] (SEQ ID NO: 3), and as control siRNA, stealth RNAi negative control duplexes were used. Plasmid DNA and siRNA transfections were carried out using Lipofectamine 2000 and Lipofectamine RNAiMax (Life Sciences) respectively, following the manufacturer's instructions. Cells were analysed 48 to 72 hours after transfection.
as §1
CellProfiler software was used to quantify nuclear circularity and nuclear area from DAPI staining pictures, using the “object size shape” measurement. The AreaShape measurement allowed the calculation of the Form Factor index ([…]) corresponding to circularity (a Form Factor of 1 reflecting a perfect circle), as well as the calculation of nuclear Area.
Lamin A/C was depleted by siRNA in U2OS cells (siLMNA) to induce misshapen nuclei. Cells were then treated for 16 h with various analogues of Compound 2 and nuclear shape rescue was analysed by DAPI staining. The results are shown in FIG. 18 and FIG. 19 which display the structures of the tested molecules and their ability to rescue nuclear shape.

[2] = tested on: cells (sub-cellular distribution); assay: Fluorescent labelling of clickable molecules (sub-cellular distribution); type: cell-based; conditions: 2 hours pre-incubation, Alexa fluor 488 Azide click
Protocol: Cells were pre-incubated with clickable molecules Compound 3 or Reference Compound A (1-Chloro-4-ethynilbenzene, purchased from Sigma-Aldrich) for 2 hours before being fixed and permeabilised as described above. Click reaction was prepared using Invitrogen Click-iT reagents with Alexa fluor 488 Azide and incubated with fixed cells for 1 hour in the dark. In case of co-labelling with another protein, the click reaction was performed before the antibody incubations.

[3] = tested on: LMNA knock out (KO) U2OS cell line; assay: Cell growth of LMNA KO versus LMNA WT U2OS cells (IncuCyte ZOOM); type: cell-based, human; conditions: U2OS LMNA KO
Description: LMNA knock out (KO) U2OS cell line was engineered using CripR/Cas9 technology. The sensitivity of LMNA KO cells to Compound 2 was compared to cells expressing wild type LMNA (LMNA WT). Cell growth was monitored automatically over time using an IncuCyte ZOOM®. The results are shown in FIG. 21 which has been split into two graphs for easier reading of the curves.

[4] = tested on: HGPS primary fibroblasts (AG11498 and AG06267); assay: Misshapen nuclei in HGPS cells; type: cell-based, human; conditions: HGPS patient fibroblasts
Protocol: as §2
as §1, with “Aphidicolin (Sigma-Aldrich) was used at 5 μg/ml for 16 h. Farnesyltransferase inhibitor FTI-277 was purchased from Tocris Bioscience and used at 5 μM. ATMi (KU55933) and ATRi (ATR-45) were obtained from Tocris Bioscience and from the Ohio State University respectively and used at 10 μM and 500 nM. Pifithrin alpha (Sigma-Aldrich) was used at 10 μM.” left out

[5] = tested on: U2OS cells transfected with siCT or siLMNA; assay: Cell density after cycloheximide (DAPI staining); type: cell-based, human; conditions: 24 h treatment
Protocol: FIG. 16: Compound 2 decreases protein translation of Lamin A/C depleted cells. A) U2OS cells transfected with siRNA control (siCT) or siRNA Lamin A/C (siLMNA) were plated at the same density, treated with cycloheximide (CHX) for 24 h to inhibit protein synthesis and stained with DAPI. […] B) Protein synthesis was measured by quantifying the incorporation of HPG, a clickable analogue of methionine.

normal human fibroblasts = assay: Nuclear shape of normal fibroblasts, with or without FTI; type: cell-based
Description: FIG. 11: Remodelin prevents FTI induced nuclear shape defects in non-progeric cells. A) Analysis of Lamin A/C processing after Remodelin or FTI treatment, showing that Remodelin is not a FTI. B) Representative pictures of Lamin A/C IF staining after the indicated treatments. Arrows indicate FTI induced misshapen nuclei in normal fibroblasts. Scale bar: 50 μm. C) Quantification of misshapen nuclei with the indicated cell lines and inhibitor treatments (means of three independent experiments±s.e.m. n>178). D) Representative pictures of DAPI staining showing effects of FTI and Remodelin on nuclear shape of U2OS cells. Scale bars: 20 μm.
U2OS and SaOS-2 osteosarcoma cells, HeLa cervical cancer cells, A431 melanoma cells, NCI-SNU5 gastric cancer cells, MRC-5 lung fibroblast cells and Werner syndrome patient-derived SV40 fibroblast cells were grown in Dulbecco's modified Eagle medium (DMEM, Sigma-Aldrich) supplemented with 10% fetal bovine serum (BioSera), 2 mM L-glutamine, 100 U per ml penicillin, 100 μg ml^−1 streptomycin. […] Cells were analysed 48 to 72 hours after transfection.
The following KAT and KDAC inhibitors were used in the nuclear shape rescue screen, incubating cells with the molecules for 16 hours: trichostatin A (1 μM), sodium butyrate (5 mM), tubacin (10 μM), SAHA (5 μM), curcumin (10 μM), garcinol (50 μM), anacardic acid (1 μM), MB-3 (5 μM), 4-(4-chlorophenyl)-2-(2-cyclopentylidenehydrazinyl)thiazole (Compound 2) (50 μM), 4-(4-chlorophenyl)-2-(2-cyclopentylidene-1-(prop-2-yn-1-yl)hydrazinyl)thiazole (Compound 3) (50 μM) and cyclopentylidene-[4-(4-cyanophenyl)thiazol-2-yl)hydrazine (Compound 1) (Remodelin) (10 to 50 μM). […] Senescence was assessed after 8 days of Remodelin treatment when cells were at Population Doubling 12, and then after several weeks of Remodelin treatment, when cells reached Population Doubling 24 using the Senescence β-Galactosidase Staining Kit #9860 from Cell Signaling. […]

[6] = tested on: farnesyltransferase activity (pre-Lamin A cleavage and maturation); assay: Lamin A processing by western blotting; type: cell-based, human
Protocol: as §1, with “Nocodazole, colchicine and latrunculin A (Sigma-Aldrich) were used at 200 ng/ml, 1 μg/ml and 1 μM respectively. Aphidicolin (Sigma-Aldrich) was used at 5 μg/ml for 16 h. Farnesyltransferase inhibitor FTI-277 was purchased from Tocris Bioscience and used at 5 μM. ATMi (KU55933) and ATRi (ATR-45) were obtained from Tocris Bioscience and from the Ohio State University respectively and used at 10 μM and 500 nM. Pifithrin alpha (Sigma-Aldrich) was used at 10 μM.” left out
Total cell extracts were prepared by scraping cells in SDS lysis buffer (4% SDS, 20% glycerol, and 120 mM Tris-HCl, pH 6.8), boiling for 5 minutes at 95° C., followed by 10 strokes through a 25-gauge needle. […] Detection and quantification was performed with an imager (Odyssey; LI-COR Biosciences).

| Compound | nuclear shape / nuclear circularity rescue [1] | misshapen nuclei / nuclear shape of HGPS cells [4] | further results |
| --- | --- | --- | --- |
| Pifithrin [reference compound] |  |  | senescence of HGPS cells (β-galactosidase positive cells) (HGPS AG11498 cells): none of these compounds decrease the senescence |
| C/C1=C/C(=O)O[C@@H]2C[C@@H](CC[C@H](C)/C=C\C=C\CC1)O[C@@](O)([C@@H]1CSC(=O)N1)C2 [latrunculin A] | increased nuclear distortion |  |  |
| C#Cc1ccc(Cl)cc1 [Reference Compound A, 1-Chloro-4-ethynilbenzene, reference compound] | inactive |  | sub-cellular distribution of fluorescently labelled molecule [2]: little or no cellular staining |
| FC(F)(F)c1ccc(-c2csc(NN=C3CCCC3)n2)cc1 [Compound 13, 4-(4-Trifluoromethylphenyl)-2-(2-cyclopentylidenehydrazinyl)thiazole Hydrobromide Salt] |  |  | potency on LMNA KO cell growth inhibition compared to Compound 2 [3]: increased potency of Compound 13, compared to Compound 2 |
| COC(=O)Nc1nc2ccc(C(=O)c3cccs3)cc2[nH]1 [nocodazole] | also rescued the nuclear shape defects of siLMNA cells | also rescued the nuclear shape defects |  |
| C[C@@H]1C[C@@H]([C@H](O)CC2CC(=O)NC(=O)C2)C(=O)[C@@H](C)C1 [CHX, cycloheximide] |  |  | resistance of siLMNA versus siCT cells to protein synthesis inhibition [5]: siLMNA cells are more resistant to CHX |
| COC(=O)[C@H](CCSC)NC(=O)c1ccc(NC[C@@H](N)CS)cc1-c1ccccc1 [FTI, reference compound] | does not improve nuclear morphology in LMNA-depleted cells | improves the nuclear shape of HGPS cells | nuclear shape of normal cells (normal human fibroblasts): has the opposite effect on normal cells; pre-Lamin A processing [6]: caused accumulation of the pre-Lamin A intermediate |
| C=C1C(=O)OC(CCC)C1C(=O)O (stereo not drawn) [MB-3] | did not improve nuclear circularity |  |  |
| COc1cc2c(c(OC)c1OC)-c1ccc(OC)c(=O)cc1[C@@H](NC(C)=O)CC2 [colchicine] | also rescued the nuclear shape defects of siLMNA cells | also rescued the nuclear shape defects |  |

From US9809562B2, “NAT10 modulators for treating or preventing laminopathies, aging and cancer” (CAMBRIDGE ENTERPRISE LIMITED, priority 2014, dated 2017)
